Values quoted from earlier work, collected in patent US6673908B1, “Tumor necrosis factor receptor 2” (Nuvelo, Inc., priority 1999, dated 2004).
Where a name gives a salt, the structure may show the parent alone. Read-outs that look alike come from different tables or passages of the source.

Legend:
CD3 lymphocytes = details: in vivo
5-lipoxygenase (5-LO) = target: T1, 5-lipoxygenase (5-LO) (Homo sapiens, UniProt P09917); details: for FEV1, % change from baseline: high dose
T1 construct: host or cells: asthma patients (in vivo, endogenous enzyme)
T1 sequence (P09917 1-674): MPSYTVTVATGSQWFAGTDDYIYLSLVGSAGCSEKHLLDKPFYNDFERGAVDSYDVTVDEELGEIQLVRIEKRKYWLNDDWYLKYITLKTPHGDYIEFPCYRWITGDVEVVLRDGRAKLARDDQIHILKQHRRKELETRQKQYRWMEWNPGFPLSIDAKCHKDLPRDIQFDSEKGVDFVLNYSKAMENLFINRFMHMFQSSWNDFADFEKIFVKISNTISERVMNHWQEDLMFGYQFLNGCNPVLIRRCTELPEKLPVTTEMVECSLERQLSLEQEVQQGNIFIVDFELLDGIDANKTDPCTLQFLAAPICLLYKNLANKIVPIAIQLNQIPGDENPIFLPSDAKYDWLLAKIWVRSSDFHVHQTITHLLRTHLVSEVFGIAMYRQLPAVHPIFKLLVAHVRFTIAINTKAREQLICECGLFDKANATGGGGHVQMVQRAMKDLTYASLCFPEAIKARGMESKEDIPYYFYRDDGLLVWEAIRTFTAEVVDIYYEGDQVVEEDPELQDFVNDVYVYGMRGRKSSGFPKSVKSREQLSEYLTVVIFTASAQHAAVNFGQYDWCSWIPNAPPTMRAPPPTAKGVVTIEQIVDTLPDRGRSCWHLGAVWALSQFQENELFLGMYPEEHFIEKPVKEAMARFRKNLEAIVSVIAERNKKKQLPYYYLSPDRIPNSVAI

[1] = system: advanced colorectal cancer

## interferon alpha
Hepatitis C virus (HCV); hepatitis C virus infection
  patients in whom viral infection is completely and permanently eliminated: less than a quarter of patients
  patients receiving virtually no benefit: Nearly half of patients
Hepatitis C virus (HCV); patients with HCV genotype 1 (especially 1b)
  response rates: under 10%
Hepatitis C virus (HCV); patients with HCV genotype 2 or 3
  response rates: greater than 40%

## Monoclonal antibody: murine monoclonal antibody to deplete the circulating CD3 lymphocytes; reacts with the T3 recognition site of T-lymphocytes
CD3 lymphocytes
  sensitization rate: 15-40%
  treated patients producing human anti-mouse antibodies (HAMA): 80%

## C[C@H](C#Cc1ccc(Cc2ccc(F)cc2)s1)N(O)C(N)=O [ABT-761]
5-lipoxygenase (5-LO); Mutant, Day 8
  FEV1, % change from baseline: 1.8%
5-lipoxygenase (5-LO); Mutant, Day 84
  FEV1, % change from baseline: 5%
5-lipoxygenase (5-LO); Wild type, Day 8
  FEV1, % change from baseline: 8.2%
5-lipoxygenase (5-LO); Wild type, Day 84
  FEV1, % change from baseline: 18.5%
5-lipoxygenase (5-LO); heterozygous patients, high-dose active treatment, within one week
  improvement of forced expiratory volume: 23.3±6.0%
5-lipoxygenase (5-LO); patients with mutant genotype, active 5-LO inhibitor treatment
  improvement of forced expiratory volume: −1.2±2.9%
5-lipoxygenase (5-LO); wild-type patients, high-dose active treatment
  improvement of forced expiratory volume: 18.8±3.6%

## O=c1[nH]cc(F)c(=O)[nH]1 [5-fluorouracil]
[1]
  patients with a complete response (complete tumor disappearance): 1-5%
  patients with an objective response: 20-40%

## Nc1c2c(nc3ccccc13)CCCC2 [Cognex, tacrine hydrochloride]
Alzheimer's disease patients
  patients showing no change or minimal worsening of their disease: about 45%
Alzheimer's patients
  patients minimally improved: About 58%
  patients much improved: about 2%

## COc1ccc(CC(C)NCC(O)c2ccc(O)c(NC=O)c2)cc1 (stereo not shown) [Formoterol]
β2-adrenergic receptor; Arg 16 (n = 4)
  Degree of Brochodilator Desensitisation after Formoterol Therapy: 6 Hour FEF25-75: 23%
  Degree of Brochodilator Desensitisation after Formoterol Therapy: 6 hour FEV1: 28%
  Degree of Brochodilator Desensitisation after Formoterol Therapy: Maximal FEF25-75: −35%
  Degree of Brochodilator Desensitisation after Formoterol Therapy: Maximal FEV1: −8%
β2-adrenergic receptor; Arg16 homozygotes
  mean FEV1 desensitisation: 28%
β2-adrenergic receptor; Gln27 (n = 5)
  Degree of Brochodilator Desensitisation after Formoterol Therapy: 6 Hour FEF25-75: 38%
  Degree of Brochodilator Desensitisation after Formoterol Therapy: 6 hour FEV1: 47%
  Degree of Brochodilator Desensitisation after Formoterol Therapy: Maximal FEF25-75: −15%
  Degree of Brochodilator Desensitisation after Formoterol Therapy: Maximal FEV1: 3%
β2-adrenergic receptor; Glu/Gln27 (n = 11)
  Degree of Brochodilator Desensitisation after Formoterol Therapy: 6 Hour FEF25-75: 70%
  Degree of Brochodilator Desensitisation after Formoterol Therapy: 6 hour FEV1: 65%
  Degree of Brochodilator Desensitisation after Formoterol Therapy: Maximal FEF25-75: 45%
  Degree of Brochodilator Desensitisation after Formoterol Therapy: Maximal FEV1: 52%
β2-adrenergic receptor; Gly 16 (n = 10)
  Degree of Brochodilator Desensitisation after Formoterol Therapy: 6 Hour FEF25-75: 103%
  Degree of Brochodilator Desensitisation after Formoterol Therapy: 6 hour FEV1: 80%
  Degree of Brochodilator Desensitisation after Formoterol Therapy: Maximal FEF25-75: 73%
  Degree of Brochodilator Desensitisation after Formoterol Therapy: Maximal FEV1: 48%
β2-adrenergic receptor; Gly16 homozygotes
  mean FEV1 desensitisation: 80%
β2-adrenergic receptor; Gly/Arg 16 (n = 8)
  Degree of Brochodilator Desensitisation after Formoterol Therapy: 6 Hour FEF25-75: 70%
  Degree of Brochodilator Desensitisation after Formoterol Therapy: 6 hour FEV1: 57%
  Degree of Brochodilator Desensitisation after Formoterol Therapy: Maximal FEF25-75: 50%
  Degree of Brochodilator Desensitisation after Formoterol Therapy: Maximal FEV1: 48%
